≈ marks a conversion by molar mass, not a printed value. Non-standard residues stand in square brackets, D forms with d. Residues, ends and D or L forms follow the SMILES beside them. No end group written: not given here.

Series [1] has as its system Escherichia coli (NCTC 10418).
Protocol: (§1) The antimicrobial activity of each synthetic peptide was evaluated using the broth dilution method (Wiegand et al., [2008]). In brief, different concentrations of the peptides were incubated with microorganisms under defined conditions. Six different microorganisms were used in the assay: the Gram-positive bacteria Staphylococcus aureus (NCTC10788), Enterococcus faecalis (NCTC12697), and methicillin-resistant Staphylococcus aureus (MRSA) (NCTC 12493); the Gram-negative bacteria Escherichia coli (NCTC 10418) and Pseudomonas aeruginosa (ATCC 27853); and the yeast Candida albicans (NCYC 1467). Each microorganism was cultured in fresh Mueller-Hinton broth (MHB) overnight and then subcultured in fresh medium to a cell density equivalent to 10^8 colony-forming units (CFU)/ml. The microbial suspension was diluted with fresh MHB to a concentration of 1 × 10^5 CFU/ml. Peptide samples were dissolved in the culture medium MHB to prepare a 100-fold stock solutions and then 1 μl of each peptide solution was mixed with 99 μl of diluted bacterial culture to get a final concentration range from 1 to 512 μg/ml in two-fold dilution. […] From these wells, 10 μl of the overnight culture were added to a Mueller-Hinton agar (MHA) plate and cultured at 37°C for 16–20 h.
For series [2], the system named is methicillin-resistant Staphylococcus aureus (MRSA) (NCTC 12493).
Protocol: as §1
In series [3] the test system is horse erythrocytes. It counts as cell-based. As to the method: The haemolysis assay was performed by mixing the peptides with mammalian erythrocytes obtained from fresh defibrinated horse blood. An appropriate volume of horse blood was transferred and washed with PBS until the supernatant was clear. A series of peptide solutions were incubated with a 2% suspension of red blood cells at final concentrations of 1-512 μg/ml at 37°C for 2 h. For positive and negative controls, the red blood cells were incubated with 1% Triton-X 100 and PBS, respectively. After incubation, 200 μl of the supernatant from each sample was transferred to a microtiter plate and the absorbance at 550 nm was measured with a Synergy HT plate reader (BioTek, USA). The therapeutic index (TI), a parameter recommended by the US FDA to indicate safety/efficacy usage, was calculated as the peptide concentration causing 50% haemolysis of the red bloods cells (HC50) divided by the geometric mean of the peptide MICs against the relevant bacteria (GM). […] In the former case, the MIC that was used when no inhibition was observed was the 2-fold maximum tested value ([…] al., [2016]). Data were analyzed to obtain the mean and standard error of responses. The statistical analyses were performed by one-way ANOVA and the statistical significance of the differences was indicated as ^*p < 0.05, ^**p < 0.01, ^***p < 0.001, and ^****p < 0.0001. The dose-response curves were constructed using a “best-fit” algorithm and HC50 was calculated through the data analysis package provided in GraphPad Prism 6 (GraphPad Software, USA).

The test system of series [4] is Enterococcus faecalis (NCTC12697).
Protocol: as §1
The test system of series [5] is Pseudomonas aeruginosa (ATCC 27853).
Protocol: as §1
Series [6] has as its system S. aureus biofilm. The format is cell-based, Staphylococcus aureus. Conditions: for MBEC: 48 h. As to the method: MBIC and MBEC assays were performed using microtiter plates based on a modified 2,3,5-triphenyl tetrazolium chloride (TTC) method (Sabaeifard et al., [2014]). Overnight cultures were washed with sterile phosphate-buffered saline (PBS) and diluted with fresh broth to 10^7 CFU/ml. […] For the MBEC assay, 200 μl of inoculum was placed in a flat-bottomed microtiter plate for 48 h to form mature biofilms. Following sufficient growth time, mature biofilms were washed twice to remove the planktonic cells and incubated with a series of peptide concentrations (1–512 μg/ml) at 37°C for 20–24 h. After sufficient growth, plates were washed twice with sterile PBS followed by the addition of fresh medium (200 μl per well) and stained with 50 μl 1% TTC (g/v) solution for 5 h. After incubation, 200 μl of the supernatant from each well were transferred to a new plate and their absorbance values were measured at 470 nm using a Synergy HT plate reader (BioTek, USA).

For series [7], the system named is Candida albicans (NCYC 1467).
Protocol: as §1
In series [8] the test system is Staphylococcus aureus (NCTC10788).
Protocol: as §1
Series [9] has as its system E. coli.
Protocol: The stability of the peptides was investigated by incubating them with serum and evaluating the loss of antimicrobial activity. […] Following a 4 h incubation at 37°C, the peptide solutions were briefly centrifuged and 1 μl of each concentration was mixed with 99 μl of diluted bacterial culture (5 × 10^5 CFU/ml) in a 96-well plate. The plate was then incubated at 37°C for 16–20 h. The MICs in the presence of serum were determined by use of a Synergy HT plate reader (BioTek, USA).

On to `CC[C@H](C)[C@H](NC(=O)[C@H](C)NC(=O)[C@H](CCCCN)NC(=O)[C@@H](NC(=O)[C@H](C)NC(=O)[C@@H](NC(=O)[C@@H]1CCCN1C(=O)[C@@H](NC(=O)[C@H](CCSC)NC(=O)CNC(=O)[C@@H](CC(C)C)NC(=O)[C@@H](N)CC(C)C)[C@@H](C)CC)C(C)C)[C@@H](C)CC)C(=O)N[C@@H](CO)C(=O)N[C@@H](C)C(=O)N[C@@H](CC(C)C)C(=O)N[C@@H](CO)C(=O)N[C@@H](CCCCN)C(=O)N[C@@H](CC(C)C)C(N)=O` [medusin-PT1a] (H-L[dL]GMIPVAIKAISALSKL-NH2), for which the MBC in series [1] is 128/128 μg/ml; in [2], 32 µg/mL (≈ 17.4 µM); in series [4], 32/32 μg/ml; in series [5] it was more than 512 µg/mL; in series [7], 8/8 μg/ml; in [8] it was 16 µg/mL (≈ 8.71 µM). For the same compound, the minimal inhibitory concentration (MIC) in series [1] was 128/128 μg/ml; in series [2], 16 µg/mL (≈ 8.71 µM); in series [4] it was 32/32 μg/ml; in series [5], 128 µg/mL (≈ 69.7 µM); in [7], 8/8 μg/ml; in [8] it was 8 µg/mL (≈ 4.35 µM). For the same compound, the HC50 in [3] amounted to 226.7 µg/mL. Moreover, the MBIC in series [6] came out at 32 µg/mL. Also, the MBEC in [6] was 64 µg/mL.
For the compound LLGMIKVAITAISALSKL-NH2 [medusin-PT2], the MBC in series [2] is 32/32 μg/ml; in series [4] it was 32/32 μg/ml; in series [5], >512/>512 μg/ml; in series [7], 8/8 μg/ml; in [8], 16 µg/mL. Moreover, the minimal inhibitory concentration (MIC) in series [2] is 32/32 μg/ml; in [4] it was 32/32 μg/ml; in series [7] it was 8/8 μg/ml; in series [8] it was 8 µg/mL. Moreover, the HC50 in series [3] worked out at 93.83 µg/mL. Further, the MBIC in [6] was found to be 32 µg/mL. In addition, the MBEC in series [6] worked out at 256 µg/mL.
As to LLGMIPVAIKAISALSKL-NH2 [medusin-PT1], the MBC in series [2] was 32 µg/mL; in series [4], 32/32 μg/ml; in series [5] it was >512/>512 μg/ml; in series [7] it was 16/16 μg/ml; in series [8], 16 µg/mL. In addition, the MIC in series [2] is 16 µg/mL; in series [4], 32/32 μg/ml; in series [5] it was >512/>512 μg/ml; in series [7], 16/16 μg/ml; in series [8], 8 µg/mL. The “MIC after serum degradation 4 h” value in series [9] is more than 512 µg/mL. Besides, the HC50 in series [3] was 102.2 µg/mL. The MBIC in series [6] is 32 µg/mL. The MBEC in series [6] was found to be 128 µg/mL.
Consider LLGMIPVAITAISALSKL-NH2 [medusin-PT], for which the MBC is >512/>512 μg/ml in series [1]; >512/>512 μg/ml in [2]; >512/>512 μg/ml in series [4]; >512/>512 μg/ml in [5]; >512/>512 μg/ml in [7]; 128 µg/mL in [8]. The minimum inhibitory concentration (MIC) in [2] is >512/>512 μg/ml; in series [4], >512/>512 μg/ml; in [7], >512/>512 μg/ml; in [8] it was 64 µg/mL. Also, the HC50 in [3] was 1.814e+06 µg/mL. Also, the “haemolytic activity (in words)” value in series [3] is on record as “extremely low haemolytic activity”. Besides, in series [6], the MBIC was 512 µg/mL. In [6], the MBEC is more than 512 µg/mL.

For the origin of these results see PMC5395648, “Targeted Modification of a Novel Amphibian Antimicrobial Peptide from Phyllomedusa tarsius to Enhance Its Activity against MRSA and Microbial Biofilm” (Frontiers in Microbiology, 2017).
